Values quoted from earlier work, collected in PMC9516332 (Frontiers in Oncology, 2022).
Where two headings read alike, the source gives them in different places.

Assays:
[1] = target: T1, panel of 255 wild-type kinases (Homo sapiens, UniProt O14757); settings: CHK1 kinase assay, 1 µmol/L single concentration, cited from earlier work
T1 sequence (O14757 1-476): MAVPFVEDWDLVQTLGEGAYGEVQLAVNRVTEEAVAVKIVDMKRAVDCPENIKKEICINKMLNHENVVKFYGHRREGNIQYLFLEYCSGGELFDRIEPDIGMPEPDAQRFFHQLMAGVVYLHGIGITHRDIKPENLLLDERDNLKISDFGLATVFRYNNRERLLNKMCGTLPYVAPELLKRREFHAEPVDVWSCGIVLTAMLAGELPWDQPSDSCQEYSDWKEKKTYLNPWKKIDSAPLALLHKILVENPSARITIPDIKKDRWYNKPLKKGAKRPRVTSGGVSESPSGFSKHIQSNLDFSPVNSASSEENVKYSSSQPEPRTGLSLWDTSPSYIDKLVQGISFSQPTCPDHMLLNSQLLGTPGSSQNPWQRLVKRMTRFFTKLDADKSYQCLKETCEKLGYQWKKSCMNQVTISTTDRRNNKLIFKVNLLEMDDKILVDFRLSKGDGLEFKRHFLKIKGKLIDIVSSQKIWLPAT

[2] = target: T2, panel of 255 wild-type kinases (Homo sapiens, UniProt P30530); settings: AXL kinase assay, 1 µmol/L single concentration, cited from earlier work
T2 sequence (P30530 26-894): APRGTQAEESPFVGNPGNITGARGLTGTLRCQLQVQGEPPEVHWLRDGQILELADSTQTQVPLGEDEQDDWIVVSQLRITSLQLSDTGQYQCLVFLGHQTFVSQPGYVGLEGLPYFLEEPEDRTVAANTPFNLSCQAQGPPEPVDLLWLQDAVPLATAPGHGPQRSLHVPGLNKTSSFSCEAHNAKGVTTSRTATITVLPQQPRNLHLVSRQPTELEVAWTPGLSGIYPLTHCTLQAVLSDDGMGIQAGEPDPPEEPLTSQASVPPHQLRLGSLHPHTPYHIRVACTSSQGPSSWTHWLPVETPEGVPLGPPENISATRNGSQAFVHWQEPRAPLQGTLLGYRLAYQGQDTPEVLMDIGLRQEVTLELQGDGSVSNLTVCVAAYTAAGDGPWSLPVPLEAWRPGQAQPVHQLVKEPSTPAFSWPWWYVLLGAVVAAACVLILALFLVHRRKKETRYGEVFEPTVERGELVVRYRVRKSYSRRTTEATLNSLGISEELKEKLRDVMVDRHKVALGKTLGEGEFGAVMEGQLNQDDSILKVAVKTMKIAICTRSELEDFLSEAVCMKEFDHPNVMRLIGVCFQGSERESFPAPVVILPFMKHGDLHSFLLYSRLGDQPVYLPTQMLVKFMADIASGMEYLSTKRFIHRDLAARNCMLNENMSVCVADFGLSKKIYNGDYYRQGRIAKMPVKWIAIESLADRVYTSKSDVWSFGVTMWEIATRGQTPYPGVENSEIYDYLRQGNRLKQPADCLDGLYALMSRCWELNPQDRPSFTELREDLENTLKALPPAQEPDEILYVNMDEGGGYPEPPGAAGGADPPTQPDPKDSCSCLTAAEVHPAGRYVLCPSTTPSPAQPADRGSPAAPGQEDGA

[3] = target: panel of 255 wild-type kinases (Homo sapiens, UniProt P41240); settings: kinase CSK, 1 µmol/L single concentration, cited from earlier work
[4] = target: panel of 255 wild-type kinases (Homo sapiens, UniProt P49137); settings: kinase MAPKAPK2, 1 µmol/L single concentration, cited from earlier work
[5] = target: panel of 255 wild-type kinases (Homo sapiens, UniProt P49760); settings: kinase CLK2, 1 µmol/L single concentration, cited from earlier work
[6] = target: panel of 255 wild-type kinases (Homo sapiens, UniProt P54646); settings: AMPKα2/β1/γ1 kinase assay, 1 µmol/L single concentration, cited from earlier work
[7] = target: T3, panel of 255 wild-type kinases (Homo sapiens, UniProt Q13043); settings: MST1, 1 µmol/L single concentration, cited from earlier work
T3 sequence (Q13043 1-487): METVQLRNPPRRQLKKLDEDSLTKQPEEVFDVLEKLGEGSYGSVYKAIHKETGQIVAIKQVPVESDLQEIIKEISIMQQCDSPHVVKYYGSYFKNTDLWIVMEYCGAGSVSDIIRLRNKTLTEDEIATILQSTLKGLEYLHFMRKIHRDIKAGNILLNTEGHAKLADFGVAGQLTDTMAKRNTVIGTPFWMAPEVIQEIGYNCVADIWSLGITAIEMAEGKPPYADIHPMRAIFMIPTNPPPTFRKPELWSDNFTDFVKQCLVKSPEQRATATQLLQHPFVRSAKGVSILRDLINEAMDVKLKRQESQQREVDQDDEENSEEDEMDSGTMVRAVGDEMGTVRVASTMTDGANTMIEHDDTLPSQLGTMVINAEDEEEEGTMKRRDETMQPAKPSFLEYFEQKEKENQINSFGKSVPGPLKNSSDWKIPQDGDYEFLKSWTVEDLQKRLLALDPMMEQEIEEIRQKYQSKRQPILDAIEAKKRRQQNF

[8] = target: panel of 255 wild-type kinases (Homo sapiens, UniProt Q13131); settings: AMPKα1/β1/γ1 kinase assay, 1 µmol/L single concentration, cited from earlier work
[9] = target: panel of 255 wild-type kinases (Homo sapiens, UniProt Q16512); settings: kinase PKN1, 1 µmol/L single concentration, cited from earlier work
[10] = test system: panel of 255 wild-type kinases; settings: cited from earlier work
[11] = ref DOI: 10.1158/1535-7163.MCT-18-0877
[12] = ref DOI: 10.1371/journal.pone.0092146
[13] = kinase LYNb, 1 µmol/L single concentration, ref DOI: 10.1371/journal.pone.0092146
[14] = kinase PKCβ2, 1 µmol/L single concentration, ref DOI: 10.1371/journal.pone.0092146
[15] = kinase SRM, 1 µmol/L single concentration, ref DOI: 10.1371/journal.pone.0092146

Structure (SMILES)	%-inhibition CHK1 [1, 11]	%-inhibition AXL [2, 11]	%-inhibition at 1 µmol/L, CSK [3, 11]	%-inhibition at 1 µmol/L, MAPKAPK2 [4, 11]	%-inhibition at 1 µmol/L, CLK2 [5, 11]	%-inhibition AMPKα2/β1/γ1 [6, 11]	%-inhibition, MST1 [7, 11]	%-inhibition AMPKα1/β1/γ1 [8, 11]	%-inhibition at 1 µmol/L, PKN1 [9, 11]	%-inhibition CHK1 [1, 12]	%-inhibition AXL [2, 12]	%-inhibition at 1 µmol/L, CSK [3, 12]	%-inhibition at 1 µmol/L, MAPKAPK2 [4, 12]	%-inhibition at 1 µmol/L, CLK2 [5, 12]	%-inhibition AMPKα2/β1/γ1 [6, 12]	%-inhibition, MST1 [7, 12]	%-inhibition AMPKα1/β1/γ1 [8, 12]	%-inhibition at 1 µmol/L, PKN1 [9, 12]	%-inhibition at 1 µmol/L, LYNb [10, 13]	%-inhibition at 1 µmol/L, PKCβ2 [10, 14]	further results
O=C(c1ccc(F)c(F)c1Nc1ccc(I)cc1F)N1CC(O)([C@@H]2CCCCN2)C1 [cobimetinib]	9%	3%	5.62%	-7%	0.147%	9%	-9%	-0.873%	19%												%-inhibition at 1 µmol/L, FYN [isoform b] ([10]; kinase FYN [isoform b], 1 µmol/L single concentration, ref DOI: 10.1158/1535-7163.MCT-18-0877): -0.687%; %-inhibition at 1 µmol/L, LYNb ([10]; kinase LYNb, 1 µmol/L single concentration, ref DOI: 10.1158/1535-7163.MCT-18-0877): 8%; %-inhibition at 1 µmol/L, PKCβ2 ([10]; kinase PKCβ2, 1 µmol/L single concentration, ref DOI: 10.1158/1535-7163.MCT-18-0877): -2%; %-inhibition at 1 µmol/L, SRM ([10]; kinase SRM, 1 µmol/L single concentration, ref DOI: 10.1158/1535-7163.MCT-18-0877): 1.37%
C=CC(=O)Nc1cc(Nc2nccc(-c3cn(C)c4ccccc34)n2)c(OC)cc1N(C)CCN(C)C [osimertinib]	11%	43%	9%	-9%	38%	11%	1.52%	-5%	14%												%-inhibition at 1 µmol/L, FYN [isoform b] [10]: 14%; %-inhibition at 1 µmol/L, LYNb [10]: 10%; %-inhibition at 1 µmol/L, PKCβ2 [10]: 17%; %-inhibition at 1 µmol/L, SRM [10]: 32%
CC(=O)Nc1cccc(-n2c(=O)n(C3CC3)c(=O)c3c(Nc4ccc(I)cc4F)n(C)c(=O)c(C)c32)c1 [trametinib]										-0.719%	-1.12%	-2.83%	-0.335%	-5%	1.21%	-3.74%	-12%	3.71%	-2.58%	-1.58%	%-inhibition at 1 µmol/L, SRM [10, 15]: -4%
CCCS(=O)(=O)Nc1ccc(F)c(C(=O)c2c[nH]c3ncc(-c4ccc(Cl)cc4)cc23)c1F [vemurafenib]										4%	20%	76%	-16%	-13%	6.49%	51%	-1.59%	-0.378%	62%	-3%	%-inhibition at 1 µmol/L, SRM [10, 15]: 102%
